Assay results reported in paper PMC4920105, “Identification and Development of 2,3-Dihydropyrrolo[1,2-a]quinazolin-5(1H)-one Inhibitors Targeting Bromodomains within the Switch/Sucrose Nonfermenting Complex” (Journal of Medicinal Chemistry, 2016).
Values joined by “and” are separate entries in the source; they are usually repeats but may differ in a detail not shown here. Equal entries are not always repeated.

Assays:
PB1(5) [1] = biological target: T1, PB1(5) (Homo sapiens, UniProt Q86U86); test: DSF Tm shift assay, PB1(5) bromodomain; type: binding; details: 10 μM inhibitor, average of three replicates
T1 construct: the fifth bromodomain of PB1 (PB1(5)); made in house
T1 sequence (Q86U86 653-774): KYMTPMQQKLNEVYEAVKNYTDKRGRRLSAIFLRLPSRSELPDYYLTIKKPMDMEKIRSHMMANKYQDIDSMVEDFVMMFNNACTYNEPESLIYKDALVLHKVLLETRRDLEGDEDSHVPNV

PB1(5) [2] = biological target: T1, PB1(5); test: Isothermal calorimetry (ITC), PB1(5) bromodomain; type: binding; details: for K × 10^6 (M^–1): 293.15 K
BRD4(1) = biological target: T2, BRD4(1) (Homo sapiens, UniProt O60885); test: DSF Tm shift assay, BRD4(1); type: binding; details: 10 μM, single measurement
T2 construct: representative bromodomains (PCAF, BRD4(1), CREBBP, TRIM33B) from other subfamilies using DSF; made in house
Description: (§1) Protein Expression and Purification.
(§2) Proteins were cloned, expressed, and purified as previously described.1 […]
(§3) Bromodomain DSF Tm assays were performed using a Mx3005p real-time PCR machine (Agilent) and low profile 96-well PCR plates (AB-0700, Life Technologies). Protein was buffered in 10 mM HEPES, pH 7.5, 500 mM NaCl and assayed at a concentration of 2 µM with 10 µM inhibitor concentration and 1:1000 SyproOrange (Invitrogen). Excitation and emission filters were set to 465 and 590 nm respectively. The temperature was raised by 3 °C per 1 min from 25–95 °C, and fluorescence readers were taken at each interval. Data analysis was carried out as described previously.2
(§4) AlphaScreen Displacement Assay.
(§5) AlphaScreen assays were based on a reported protocol, with minor variations.3 In place of a biotinylated peptide, a biotinylated ligand was used at 25 nM final concentration.
(§6) Isothermal Calorimetry Experiments.
(§7) Calorimetric experiments were performed on a VP-ITC micro-calorimeter (MicroCalTM, LLC Northampton, MA). Protein solutions were buffer exchanged by dialysis into buffer 20 mM Hepes pH 7.5, 150 mM NaCl, and 0.5 mM TCEP. All measurements were carried out at 293.15 K while stirring at 286 rpm. The micro syringe was loaded with protein solutions ranging from […]

CREBBP = biological target: T3, CREBBP (Homo sapiens, UniProt Q92793); test: DSF Tm shift assay, CREBBP; type: binding; details: 10 μM, single measurement
T3 construct: representative bromodomains (PCAF, BRD4(1), CREBBP, TRIM33B) from other subfamilies using DSF; made in house
T3 sequence (Q92793 1085-1192 limits assumed): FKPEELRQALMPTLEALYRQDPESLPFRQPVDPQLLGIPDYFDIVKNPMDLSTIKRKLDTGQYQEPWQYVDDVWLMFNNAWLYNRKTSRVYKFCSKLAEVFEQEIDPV
Description: as §1, §2, §3, §4, §5, §6, §7

PCAF = biological target: T4, PCAF (Homo sapiens, UniProt Q92831); test: DSF Tm shift assay, PCAF; type: binding; details: 10 μM, single measurement
T4 construct: representative bromodomains (PCAF, BRD4(1), CREBBP, TRIM33B) from other subfamilies using DSF; made in house
T4 sequence (Q92831 723-827 limits assumed): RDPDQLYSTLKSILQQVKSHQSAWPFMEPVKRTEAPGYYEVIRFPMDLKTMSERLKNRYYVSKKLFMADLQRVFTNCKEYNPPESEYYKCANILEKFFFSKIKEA
Description: as §1, §2, §3, §4, §5, §6, §7

TRIM33B = biological target: T5, TRIM33B (Homo sapiens, UniProt Q9UPN9); test: DSF Tm shift assay, TRIM33B; type: binding; details: 10 μM, single measurement
T5 construct: representative bromodomains (PCAF, BRD4(1), CREBBP, TRIM33B) from other subfamilies using DSF; made in house
T5 sequence (Q9UPN9 957-1063 isoform Q9UPN9-2 limits assumed): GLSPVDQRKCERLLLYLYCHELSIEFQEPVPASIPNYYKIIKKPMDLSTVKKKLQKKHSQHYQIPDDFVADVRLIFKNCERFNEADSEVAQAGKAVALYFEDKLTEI
Description: as §1, §2, §3, §4, §5, §6, §7

Solubility (qualitative) = type: physicochemical; details: chlorinated derivatives
SMARCA2B = biological target: T6, SMARCA2B (Homo sapiens, UniProt P51531); test: Isothermal calorimetry (ITC), SMARCA2B; type: binding
T6 construct: made in house
T6 sequence (P51531 1373-1493 isoform P51531-2 limits assumed): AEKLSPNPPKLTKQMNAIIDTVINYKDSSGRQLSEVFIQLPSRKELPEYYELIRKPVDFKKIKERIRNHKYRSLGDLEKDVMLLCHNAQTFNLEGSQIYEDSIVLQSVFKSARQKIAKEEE
Description: as §1, §2, §3, §4, §5, §6, §7
for the cell. All injections for PB1(5) were performed using an initial injection of 2 μl followed by 30 injections of 8 μl with a duration of 16 sec per injection and a spacing of 240 sec between injection. Injections for SMARCA2B and SMARCA4 were performed using an initial injection of 2 μl followed by 35 injections of 8 μl with a duration of 16 sec per injection and a spacing of 240 sec between injection.The data were analyzed with the MicroCal ORIGIN software package employing a single binding site model. The first data point was excluded from the analysis.
Thermodynamic parameters were calculated (ΔG = ΔH - TΔS = -RTlnKB where ΔG, ΔH and ΔS are the changes in free energy, enthalpy and entropy of binding, respectively).
Fluorescence Recovery After Photobleaching (FRAP)
FRAP studies were performed essentially as described. In brief, U2OS cells were transfected (Fugene HD; Roche) with mammalian over-expression constructs encoding GFP fused to the N-terminus of full length wild-type or mutant SMARCA2 (1). The imaging system consisted of a Zeiss LSM 710 laser-scanning and control system (Zeiss) coupled to an inverted Zeiss Axio Observer.Z1 microscope equipped with a high-numerical-aperture (N. A. 1.3) 40 x oil immersion objective (Zeiss). […] FRAP and GFP fluorescence imaging were both carried out with an argon-ion laser (488 nm) and with a PMT detector set to detect fluorescence between 500-550 nm. […] The image datasets and fluorescence recovery data were exported from ZEN 2009, the microscope control

SMARCA4 = SMARCA4 (Homo sapiens, UniProt P51532); test: Isothermal calorimetry (ITC), SMARCA4; type: binding
Sequence of SMARCA4 (P51532 1453-1564 limits assumed): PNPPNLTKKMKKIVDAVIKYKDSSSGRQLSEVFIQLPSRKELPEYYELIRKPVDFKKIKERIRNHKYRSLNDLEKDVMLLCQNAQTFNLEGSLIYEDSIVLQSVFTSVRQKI

For `Cc1cccc2c1c(=O)nc1n2CCC1` [Compound 16c], the ΔTm at 10 µM (PB1(5) [1]) was 0 °C.
For `O=c1nc2n(c3cccc(F)c13)CCC2` [Compound 17c], the ΔTm at 10 µM (PB1(5) [1]) was -0.1 ± 0.8 °C.
With `CN(C)/C=C1\CCn2c1nc(=O)c1c(Cl)cccc12` [Compound 18] the TΔS (PB1(5) [2]) was 12.63 kJ/mol and 12.6 kJ/mol, the ΔG (PB1(5) [2]) was -38.47 kJ/mol and the “K × 10^6 (M^–1)” value (PB1(5) [2]) was 7.29 × 10^6 M^–1. For the same compound, the “BRD4(1) Tm” value (BRD4(1)) was 0.3 °C, the “CREBBP Tm” value (CREBBP) was 0.0 °C and the “PCAF Tm” value (PCAF) was 0.2 °C. The “TRIM33B Tm” value (TRIM33B) was 0.2 °C.
With `O=c1nc2n(c3cccc(Cl)c13)CCC2` [Compound 18c, 6-chloro-2,3-dihydropyrrolo[1,2-a]quinazolin-5(1H)-one] the ΔTm at 10 µM (PB1(5) [1]) was 2.6 ± 0.3 °C.
In the case of `O=c1nc2n(c3cccc(Br)c13)CCC2` [Compound 19c], the ΔTm at 10 µM (PB1(5) [1]) is reported as 3.1 ± 0.3 °C.
With `COc1cccc2c1c(=O)nc1n2CCC1` [Compound 20c] the ΔTm at 10 µM (PB1(5) [1]) was -0.6 ± 0.5 °C.
Work on `O=c1nc2n(c3cccc(O)c13)CCC2` [Compound 21c] yielded a ΔTm at 10 µM (PB1(5) [1]) of -0.1 ± 0.4 °C.
For `O=c1nc2n(c3cccc(Cl)c13)CC/C2=C\N1CCCCC1` [Compound 24], the TΔS (PB1(5) [2]) was 16.92 kJ/mol and 16.7 kJ/mol, the ΔG (PB1(5) [2]) was -38.67 kJ/mol and the “K × 10^6 (M^–1)” value (PB1(5) [2]) was 7.86 × 10^6 M^–1. For the same compound, the “BRD4(1) Tm” value (BRD4(1)) was 1.0 °C, the “CREBBP Tm” value (CREBBP) was 0.0 °C and the “TRIM33B Tm” value (TRIM33B) was -0.1 °C. For the same compound, the “DMSO and aqueous solubility” value (Solubility (qualitative)) was “greatly improved”.
With `O=c1nc2n(c3cccc(Cl)c13)CC/C2=C\N1CCOCC1` [Compound 25] the “CREBBP Tm” value (CREBBP) was 0.1 °C, the “PCAF Tm” value (PCAF) was 0.8 °C and the “TRIM33B Tm” value (TRIM33B) was 0.9 °C.
With `CN1CCN(/C=C2\CCn3c2nc(=O)c2c(Cl)cccc23)CC1` [Compound 26] the ΔG (PB1(5) [2]) was -38.79 kJ/mol, the “K × 10^6 (M^–1)” value (PB1(5) [2]) was 8.09 × 10^6 M^–1 and the “K×10^6 (M-1)” value (SMARCA2B) was 3.81 ×10^6 M-1. For the same compound, the TΔS (SMARCA2B) was 23.05 kJ/mol, the ΔG (SMARCA2B) was -36.86 kJ/mol and the ΔH (SMARCA2B) was -13.82 kJ/mol. For the same compound, the “K×10^6 (M-1)” value (SMARCA4) was 2.40 ×10^6 M-1, the TΔS (SMARCA4) was 20.23 kJ/mol and the ΔG (SMARCA4) was -20.24 kJ/mol. For the same compound, the ΔH (SMARCA4) was -15.59 kJ/mol and the “DMSO and aqueous solubility” value (Solubility (qualitative)) was “greatly improved”.
For `CCN1CCN(/C=C2\CCn3c2nc(=O)c2c(Cl)cccc23)CC1` [Compound 27], the TΔS (PB1(5) [2]) was 19.7 kJ/mol, the ΔG (PB1(5) [2]) was -38.48 kJ/mol and the “K × 10^6 (M^–1)” value (PB1(5) [2]) was 7.05 × 10^6 M^–1. For the same compound, the “DMSO and aqueous solubility” value (Solubility (qualitative)) was “greatly improved”.
In the case of `CCC(/C=C1\CCn2c1nc(=O)c1c(Cl)cccc12)CC` [Compound 28], the TΔS (PB1(5) [2]) is reported as 9.883 kJ/mol and 9.62 kJ/mol, the ΔG (PB1(5) [2]) is reported as -38.12 kJ/mol and the “K×10^6 (M-1)” value (SMARCA4) is reported as 0.49 ×10^6 M-1. It also gave a TΔS (SMARCA4) of 26.97 kJ/mol, a ΔG (SMARCA4) of -31.88 kJ/mol and a ΔH (SMARCA4) of -4.912 kJ/mol.
